Data on two compounds can be found in patent US20150328320A1, “Novel Pharmaceutical Composition” (GLAXOSMITHKLINE LLC, priority 2012, published 2015).

Data set [1] can be described thus: Solubility profile at 0.05 mg/mL using solubilizers as a function of time (FIG. 4). The data set is classed as physicochemical. Particulars: 30 days, 25° C. and 60% relative humidity.
A short description of data set [2]: Effect of HPMC and solubilizers on aqueous solubility of trametinib (FIG. 3). The data set is classed as physicochemical. The note with it: HPMC present in a cavitron solution, initial 1 mg/mL.
Data set [3] in a line: Trametinib concentration profile as a function of time and Cavitron concentration (FIG. 2).
Data set [4] is described as follows: Exposure and absorption upon in vivo administration. An excerpt:
Suitably the powder for oral solution (POS) of the current invention contain micronized Compound A where at least 90% of the particles of Compound A are from 1 to 20 microns, suitably from 2.2 to 10.5 microns, such formulations provide an acceptable exposure/absorption profile. Suitably the powder for oral solution (POS) of the current invention contains micronized Compound A where at least 50% of the particles of Compound A are from 1 to 6 microns, suitably from 1.5 to 4.3 microns, such formulations provide an acceptable exposure/absorption profile. Suitably the powder for oral solution (POS) of the current invention contains micronized Compound A where at least 10% of the particles of Compound A are from 0.01 to 3.0 microns, suitably from 0.77 to 1.3 microns, such formulations provide an acceptable exposure/absorption profile. Such formulations help provide safe and effective treatment.

A short description of data set [5]: Physical stability, photo-stability and relative solubility of the drug substance. The data set is classed as physicochemical. An excerpt: Several additional challenges exist concerning the use of Compound A in a pediatric formulation.
The potential for unacceptable levels of photo-degradation is of particular importance since photo-catalyzed degradation products may be potentially toxic.

Data set [6] can be described thus: Aqueous solubility of trametinib in the presence of various solubilizers (FIG. 1). The data set is classed as physicochemical. The source says: FIG. 1 depicts the aqueous solubility of trametinib in the presence of various solubilizers.
As used herein, “solubilizer” is a substance (liquid or solid) that helps to keep the drug uniformly dispersed and dissolved in solution. A solubilizer prevents recrystallization and precipitation of the dissolved drug out of solution. For use in the present invention, suitable solubilizers include, but are not limited to, hypromellose, polyvinylpyrrolidone, sulfobutylether B-cyclodextrin (Captisol) and hydroxypropyl B-cyclodextrin (Cavitron). A combination of solubilizers can also be used. […] Suitably, the amount of solubilizer in a formulation according to the invention will be selected from: about 30 to 95%; suitably about 50 to 80%; suitably about 65 to 75%; by weight of the final product. Suitably, the amount of solubilizer in a formulation according to the invention will be selected from: about 30%; suitably about 35%, suitably about 40%, suitably about 45%, suitably about 50%, suitably about 55%, suitably about 60%, suitably about 65%, suitably about 70%, suitably about 75%, suitably about 80%, suitably about 85%, suitably about 90%, and suitably about 95%, by weight of the final product.

The subject of data set [7] is BRAF V600-mutation positive metastatic melanoma. Particulars: subjects with BRAF V600-mutation positive metastatic melanoma, Phase III study; cited from earlier work.

Entries after “also recorded” stand apart in the source; their conditions may differ.

In the case of `CC(=O)Nc1cccc(-n2c(=O)n(C3CC3)c(=O)c3c(Nc4ccc(I)cc4F)n(C)c(=O)c(C)c32)c1` [Compound A, N-{3-[3-cyclopropyl-5-(2-fluoro-4-iodo-phenylamino)-6,8-dimethyl-2,4,7-trioxo-3,4,6,7-tetrahydro-2H-pyrido[4,3-d]pyrimidin-1-yl]phenyl}acetamide dimethyl sulfoxide solvate], the “solubility and solution stability over time” value in data set [1] (captisol solution) is “able to maintain the solubility and stabilize the solution for 30 days”; in data set [1] (cavitron solution), “able to maintain the solubility and stabilize the solution for 30 days”. The “stability of solution (precipitation)” value in data set [2] is “increases the stability of trametinib solution”. Besides, the “trametinib concentration remaining in solution” value in data set [3] (Cavitron solutions, initial concentration 1 mg/mL, after five days) is on record as 7-10 % of the initial concentration. The exposure and absorption entry in data set [4] was “poor exposure and absorption”. Moreover, the “physical stability of the solvate (desolvation)” value in data set [5] (high humidity or aqueous environment, handling and formulation) was “favors conversion from the dimethyl sulfoxide solvate to the de-solvated form; also recorded: can undergo desolvation”. In addition, in data set [5] (light), the photo-stability result was “very sensitive to light; also recorded: can suffer from photo-instability”. In addition, the aqueous solubility entry in data set [6] (hypromellose and hydroxypropyl B-cyclodextrin combined) was “good aqueous solubility”; in data set [6] (in hydroxypropyl B-cyclodextrin (Cavitron) formulation), “greatest solubility”; in data set [6] (in polyethylene glycol (PEG) solution), “very low aqueous solubility”; in data set [6] (in polyethylene glycol (PEG) solution, listed as Trametinib), “generally not soluble”; in data set [6] (in propylene glycol solution) it was “very low aqueous solubility”; in data set [6] (in propylene glycol solution, listed as Trametinib) it was “generally not soluble”. The anti-tumor activity result in data set [7] is on record as “has shown anti-tumor activity”.

`CC(=O)Nc1cccc(-n2c(=O)n(C3CC3)c(=O)c3c(Nc4ccc(I)cc4F)n(C)c(=O)c(C)c32)c1` [Compound B, N-{3-[3-cyclopropyl-5-(2-fluoro-4-iodo-phenylamino)-6,8-dimethyl-2,4,7-trioxo-3,4,6,7-tetrahydro-2H-pyrido[4,3-d]pyrimidin-1-yl]phenyl}acetamide]: in data set [3] (starting concentration ~0.05 mg/mL, conditions of FIG. 2), the “precipitation out of solution” value is recorded as “no significant amount of the drug will precipitate out of solution”. Further, the “solubility relative to Compound A” value in data set [5] is reported as “much less soluble than Compound A”.
